Measured values published in US20250163016A1, “PYRIDINE DERIVATIVE, PREPARATION METHOD THEREFOR AND USE THEREOF” (CHENGDU EASTON BIOPHARMACEUTICALS CO., LTD., priority 2022, published 2025).

What was measured:
Kasumi-1 cells = assay: Kasumi-1 cell proliferation inhibition test (Celltiter GLO); format: cell-based; conditions: Homo sapiens, 168 h, Kasumi-1, 7 days culture
Experimental: (§1) Research had confirmed that LSD1 played a crucial role in the occurrence process of various types of cancers, including small cell lung cancer (SCLC) and acute myeloid leukemia (AML). Therefore, a human acute myeloid leukemia (Kasumi-1) cell line was used to determine the ATP content in cells at different drug concentrations using a Celltiter GLO assay kit, the cell activity was reflected by luminescence intensity, and IC50 values of different compounds on Kasumi-1 cells were calculated using inhibition rates. The inhibitory effects of the compounds in the present application on the proliferation of Kasumi-1 cells were studied to evaluate the anti-tumor efficacy of the tested compounds at the cellular level.
(§2) • Day 1 Cells were seeded into the 384-well cell culture plate and placed in a 37° C. 5% CO2 cell incubator to be cultured overnight. • Day 0 The compound to be tested was prepared into a 10 mM mother liquid using DMSO, starting from 1 M, diluted by 3 folds, with 10 concentration points and double duplicate wells. A diluted compound was added into the 384-well cell culture plate and placed in a 37° C. 5% CO2 cell incubator to be cultured for 7 days. The concentration of the DMSO in a cell culture system was 0.1 vol %. • Day 7 Celltiter GLO was added into the 384-well cell culture plate according to a volume ratio of culture system:Celltiter GLO=1:1, light-shielded oscillation was carried out on a plate oscillator for 3 min, then the cell culture plate was placed at the room temperature for 30 min with light shielded, and the plate was read using a multifunctional microplate reader chemical light emitting module.
An inhibition rate was calculated by utilizing luminescence intensity of the above DMSO group (with DMSO added), test group (with the tested compound or a positive control solution added) and blank group (not treating cells), and a calculation formula was as follows: […]
(§3) Using a logarithm of the concentration as an X axis and the percentage inhibition rate as a Y axis, a dose-response curve was fitted using a formula log(inhibitor) vs. response-Variable slope (Four parameters) of analysis software Graphpad Prism 8 to obtain the IC50 value of each compound on Kasumi-1 proliferation inhibition activity.

LSD1 = target: T1, LSD1 (Homo sapiens, UniProt O60341); assay: LSD1 activity test (HTRF); format: biochemical; conditions: H3(1-21)K4 me1-biotin substrate, read-out: IC50, inhibitory activity on LSD1
T1 construct: purchased Active Motif 31432
Experimental: In this test, a homogeneous time resolved fluorescence (HTRF) technology was utilized, and the inhibitory activity of compounds on LSD1 was detected by adopting a two-step method. The first step was to incubate LSD1, compounds of different concentrations, and a biotin-labeled methylated polypeptide substrate (H3(1-21)K4 me1-biotin) at the room temperature for fixed time.
A corresponding solution with a 1000-fold final concentration was formed by dilution in a 384-well Source plate, and then Echo550 was used for transferring 10 nL to a 384-well reaction plate for being tested.
An inhibition percentage was calculated using a maximum value, a minimum value, and a signal value (maximum value: fluorescence intensity of 5 μL of 2× enzyme solution+5 μL of 2× substrate mixed solution+10 nL of 100% DMSO+10 μL of detection solution; minimum value: fluorescence intensity of 5 μL of 1× reaction solution+5 μL of 2× substrate mixed solution+10 nL of 100% DMSO+10 μL of detection solution; and signal value: fluorescence intensity of 5 μL of 2× enzyme solution+5 μL of 2× substrate mixed solution+10 nL of diluted compound to be tested+10 μL of detection solution), and a calculation formula was as follows: […]
as §3, with “5” for “8”, “the enzyme” for “Kasumi-1 proliferation inhibition”

NCI-H1417 cells = assay: NCI-H1417 cell proliferation inhibition test (Celltiter GLO); format: cell-based; conditions: Homo sapiens, 168 h, NCI-H1417, 7 days culture
Experimental: as §1, with “small cell lung cancer (NCI-H1417)” for “acute myeloid leukemia (Kasumi-1)”, “kit, and” for “kit,”, “intensity.” for “intensity, and”, “the NCI-H1417” for “Kasumi-1”
as §2, with “μM,” for “M,”, “0.1%.” for “0.1 vol %.”
An inhibition percentage was calculated by utilizing luminescence intensity of the above DMSO group (with DMSO added), test group (with the tested compound and a positive control solution added) and blank group (not treating cells), a calculation formula being
as §3, with “NCI-H1417” for “Kasumi-1”

[1] = Pharmacokinetics of oral administration of rats; format: in vivo; conditions: male, rat, SD rats, p.o. 5.0 mg/kg, plasma
Experimental: With SD rats as tested animals, blood drug concentrations in plasma at different moments after oral administration of the compounds of the present application by the rats in a clarification kit mode were determined using an LC-MS/MS method. Pharmacokinetic parameters of the compounds of the present application in the rats were obtained, and pharmacokinetic characteristics of the compounds were studied.
• SD rats, male, weight 180-220 g, 3 rats per group. The animals were fed in an animal house after being purchased, an adaptation period was at least 3 days, and they were used for tests after passing quarantine.
According to Table 4, each group of rats was given the corresponding tested drugs or positive drugs by gavage, before administration, and 15 min, 30 min, 1 h, 2 h, 4 h, 6 h, 8 h, and 24 h after administration, a fixed volume of blood was collected through eye sockets and placed in an EDTA-K2 anticoagulant tube, centrifuging was carried out at 8000 rpm for 1 min to separate plasma into a centrifuge tube, and the plasma was frozen in a −20° C. refrigerator.
The plasma at each time point stored at −20° C. was taken out, then acetonitrile was added, after whirling at 1500 revolutions for 2 min, centrifuging was carried out for 15 min (3500 r/min), and a fixed volume of solution supernatant was taken for LC-MS/MS analysis.
Non-compartment model fitting was carried out on pharmacokinetic behaviors of the tested compounds, and DAS3.31 software was adopted to calculate main pharmacokinetic parameters (T1/2, Tmax, Cmax, AUClast, etc.).

Compound: Cn1ncc2cc(-c3c(C#N)cc(N4CCC(N)CC4)nc3-c3ccc(C#N)c(F)c3)ccc21 [Compound 4, 6-(4-aminopiperid-1-yl)-2-(4-cyano-3-fluorophenyl)-3-(1-methyl-1H-indazol-5-yl)isonicotinonitrile]
- IC50 (Kasumi-1 cells): 3.07 nM
- IC50 (LSD1): 0.47 nM
- IC50 (NCI-H1417 cells): 16.7 nM
- AUC(0-t) [1]: 0.712 ± 0.0893 µg·h/mL
- Cmax [1]: 0.055 ± 0.00772 µg/mL
- Tmax [1]: 6 h
- half-life [1]: 5.31 ± 0.24 h

Compound: CC(C)(O)Cn1ncc2cc(-c3c(C#N)cc(N4CCCNCC4)nc3-c3ccc(C#N)c(F)c3)c(F)cc21 [Compound 21, 2-(4-cyano-3-fluorophenyl)-6-(1,4-diazaniline-1-yl)-3-(6-fluoro-1-(2-hydroxyl-2-methylpropyl)-1H-indazol-5-yl)isonicotinonitrile]
- IC50 (Kasumi-1 cells): 1.03 nM
- IC50 (LSD1): 0.79 nM
- IC50 (NCI-H1417 cells): 6.51 nM
- AUC(0-t) [1]: 0.721 ± 0.125 µg·h/mL
- Cmax [1]: 0.0814 ± 0.017 µg/mL
- Tmax [1]: 4.67 ± 1.15 h
- half-life [1]: 2.84 ± 0.59 h

Compound: CN1C(=O)Cc2cc(-c3c(C#N)cc(N4CCC(N)CC4)nc3-c3ccc(C#N)c(F)c3)ccc21 [Compound 18, 6-(4-aminopiperid-1-yl)-2-(4-cyano-3-fluorophenyl)-3-(1-methyl-2-oxoindol-5-yl)isonicotinonitrile]
- IC50 (Kasumi-1 cells): 8.79 nM
- IC50 (LSD1): 1.5 nM
- IC50 (NCI-H1417 cells): 33.3 nM
- AUC(0-t) [1]: 0.591 ± 0.292 µg·h/mL
- Cmax [1]: 0.0772 ± 0.0321 µg/mL
- Tmax [1]: 4 h
- half-life [1]: 2.94 ± 0.11 h
